Our source for the melting point and IC50 values is patent publication US9340543B2, “Helquat derivatives, preparation thereof, and use thereof as medicaments” (USTAV ORGANICKE CHEMIE A BIOCHEMIE AKADEMIE VED CR, V.V.I., priority 2013, dated 2016).

Structures are written as SMILES. Counter-ions that a name gives are not always drawn. Where only a bound is given, the exact number is not on record here.

One data set has as its system HeLa. The experiment in a line: CellTiter-Glo luminescent cell viability assay (ATP quantification), HeLa. The class given is cell-based. The following applies: cervical cancer cells, 72 h treatment, viable cells by ATP luminescence. How it is done:
(§1) Influence of the test compounds on viability (proliferation) of cell lines used was investigated in concentration range 0-100 μmol·l^−1.
Adherent cell line HeLa is a permanent in vitro culture derived from cervical cancer. HeLa cell line was cultivated in RPMI 1640 medium (Dutch modification) (Sigma-Aldrich, cat. no. R7638) with addition of 2 mmol·l^−1 glutamine (Invitrogen, see above), 10% fetal bovine serum (FBS, Sigma-Aldrich, see above), 100 IU/ml peniciline, 100 μg/ml streptomycine (Sigma-Aldrich, see above). Passaging was performed twice a week. After washing of cells with sterile PBS the cells were released by 0.25% trypsin/EDTA (Sigma-Aldrich, cat. no. T4049) at 37° C. for 2 minutes. The trypsin was inactivated by addition of 2 volumes of complete medium, cells were then centrifuged (250×g, 5 min), the cell pellet was resuspended, and transferred in the amount needed into a new cultivation bottle with fresh medium. Population doubling time of […] cell line was 25 h under the cultivation conditions used.
(§2) In order to test the sensitivity of the cell lines towards the studied helquats, cytotoxity test for cell viability assessment based on ATP quantification in cell lysates was used (CellTiter-Glo® Luminescent Cell Viability Assay, Promega, cat. no. G7571). In this test, ATP in cell lysates is detected using luciferase reaction. Luminescence intensity correlates with the ATP level and thus with quantity of metabolically active (viable) cells. IC50 value serves as the output, that is the concentration of the test compound which leads to 50% reduction in number of viable cells as compared to control, untreated population. To this end, IC50 value reflects efficiency of the test compound with regard to the given cell line.
(§3) Cells in the exponential growth phase were seeded into a 96-well microtiter plate were plated at 3000 cells per well. Each well contained 90 μl of cell suspension. The next day, 10 μl of 10× concentrated test compound solutions were added. The effect of helquats was investigated in concentration range 1 to 100 μmol·l^−1 (e.g. 1; 2.5; 5; 7.5; 10; 15; 25; 50 and 100 μmol·l^−1). Apart from the section containing the concentration series of the test compound, each well contained 2 control columns, the first with pure medium (so called blank) and the second with cells in medium without the test compounds (control). Into wells containing controls and blanks, volume of solvent (water) equal to the volume of added compound solutions was added. After 72 h of incubation with the test compounds viability was determined according to the manufacturer's instructions. In short: microtiter well plate was left 30 min to reach the room temperature after it has been removed from the incubator. Then, into each well, 100 μl of the prepared detection agent was added. Next, the well plate was shaken for 2 min to complete the full lysis. Next, after the well had been left in the dark for 15 min, the luminescence was measured in each well using luminometer (Tecan Genios, Austria).
(§4) IC50 value represents concentration of the test compound, which leads to 50% reduction of viable cells (inhibition of cell growth) after 72 h of the treatment. Each helquat concentration was tested in triplicates in a IC50 quantification and at least 3 independent IC50 quantification experiments were performed. IC50 values over 100 μmol·l^−1 were obtained by extrapolation of data measured in concentration range 0-100 μmol·l^−1 for the given helquat.
A general note: In ATP-based viability assays light output follows the ATP content of the culture.

A further data set deals with HL-60. Put plainly: CellTiter-Glo luminescent cell viability assay (ATP quantification), HL-60. The class given is cell-based. The following applies: acute promyelocytic leukemia cells, 72 h treatment, viable cells by ATP luminescence. How it is done: as §1
Suspension cell line HL-60 is a permanent in vitro culture of acute promyelocytic leukemia. HL-60 cell line was cultivated in RPMI 1640 medium (Sigma-Aldrich, see above) with addition of 2 mmol·l^−1 glutamine (Invitrogen, see above), 10% fetal bovine serum (FBS, Sigma-Aldrich, see above), 100 IU/ml peniciline, 100 μg/ml streptomycine (Sigma-Aldrich, see above). Passaging was performed 2-3× a week. Population doubling time of HL-60 cell line was 23 h under the cultivation conditions used.
as §2, §3, §4

The test system of a further data set is CCRF-CEM. Put plainly: CellTiter-Glo luminescent cell viability assay (ATP quantification), CCRF-CEM. The following applies: acute lymphoblastic leukemia cells, 72 h treatment, viable cells by ATP luminescence. It counts as cell-based. How it is done: as §1
Suspension cell line CCRF-CEM is a permanent in vitro culture of acute lymphoblastic leukemia. CCRF-CEM cell line was cultivated in RPMI 1640 medium (Sigma-Aldrich, cat. no. R8758) with addition of 2 mmol·l^−1 glutamine (Invitrogen, cat. no. 35050-038), 10% fetal bovine serum (FBS, Sigma-Aldrich, cat. no. F9665), 100 IU/ml peniciline, 100 μg/ml streptomycine (Sigma-Aldrich, cat. no. P0781). Passaging was performed 2-3× a week. Population doubling time of CCRF-CEM cell line was 20 h under the cultivation conditions used.
as §2, §3, §4

The next data set concerns HUVEC. The experiment in a line: CellTiter-Glo luminescent cell viability assay (ATP quantification), HUVEC normal cells. It counts as cell-based, human. The following applies: 72 h treatment. How it is done: as §1
Normal human endothelial cells from umbilical vein are adherent cells cultivated in plastic Petri dishes coated with collagen I. Into the cultivation medium (E-STIM™; BD Biosciences, cat. co. 355054) already containing 2% FBS (fetal bovine serum), hydrocortisone and heparin the following two further ingredients were added: epidermal growth factor (EGF, 5 μg) and mixture of factors facilitating growth of endothelial cells (ECGS, 100 mg). […] The cells were passaged after reaching 90% confluency by dissociation using 0.25% solution of trypsin/EDTA (1 ml; 3 min; 37° C.). After that 5 ml of complete cultivation medium E-STIM™ was added and the cells were centrifuged (180×g, 7 min), the pellet was resuspended, and transferred in the amount needed into a new Petri dish with fresh medium. The cells were used in experiments between the 3rd and the 8th passage after defreezing. Population doubling time of HUVEC cell line was 38 h under the cultivation conditions used.
as §2, §3, §4

A further data set deals with NHDF-Ad. Put plainly: CellTiter-Glo luminescent cell viability assay (ATP quantification), NHDF-Ad normal cells. The class given is cell-based. The following applies: normal human dermal fibroblasts, 72 h treatment.
Excerpt: as §1
Normal human dermal fibroblasts were cultivated without antibiotics in basal medium for fibroblasts (ATCC/LGC Standards, cat. no. PCS-201-030) with added “Fibroblast Growth Kit-Low serum” (ATCC/LGC Standards, cat. no. PCS-201-041) containing 2% FBS, L-glutamine, hydrocortisone, ascorbic acid, rh FGF beta, rh insulin. When 90% confluency was reached the fibroblasts were washed with sterile PBS (5 ml) and dissociated by addition of 0.25% solution of trypsin/EDTA (2 ml; 2 min; 37° C.). After that 5 ml of cultivation medium for fibroblasts was added and the cells were centrifuged (180×g, 7 min), the cell pellet was resuspended, and transferred in the amount needed into a new cultivation bottle with fresh medium. The same cell release procedure was applied when the cells were to be used in experiments. The cells were used in experiments between the 3rd and the 15th passage after defreeezing. Population doubling time of NHDF-Ad cell line was 33 h under the cultivation conditions used.
as §2, §3, §4

The next data set relates to MOLT-4. Put plainly: CellTiter-Glo luminescent cell viability assay (ATP quantification), MOLT-4. It counts as cell-based. The following applies: acute lymfoblastic leukemia cells, 72 h treatment, viable cells by ATP luminescence. How it is done: as §1
Suspension cell line MOLT-4 is a permanent in vitro culture of acute lymfoblastic leukemia. Linie MOLT-4 cell line was cultivated in RPMI 1640 medium (Sigma-Aldrich, see above) with addition of 2 mmol glutamine (Invitrogen, see above), 10% fetal bovine serum (FBS, Sigma-Aldrich, see above), 100 IU/ml peniciline, 100 μg/ml streptomycine (Sigma-Aldrich, see above). Passaging was performed 2-3× a week. Population doubling time of […] cell line was 25 h under the cultivation conditions used.
as §2, §3, §4

The test system of the next data set is LoVo. Put plainly: CellTiter-Glo luminescent cell viability assay (ATP quantification), LoVo. It counts as cell-based. The following applies: Homo sapiens, LoVo; colorectal carcinoma cells, 72 h treatment, viable cells by ATP luminescence; class symbols. How it is done:
as §1
(§5) Adherent cell line LoVo is a permanent in vitro culture derived from tissue of a patient with colorectal carcinoma. LoVo cell line was cultivated in DMEM medium (Sigma-Aldrich, cat. no. D8437) with addition of 2 mmol·l^−1 glutamine (Invitrogen, see above), 10% fetal bovine serum (FBS, Sigma-Aldrich, see above), 100 IU/ml peniciline, 100 μg/ml streptomycine (Sigma-Aldrich, see above). Passaging was performed twice a week. After washing of cells with sterile PBS, the cells were released by 0.25% trypsin/EDTA (Sigma-Aldrich, see above) at 37° C. for 2 minutes. The trypsin was inactivated by addition of 2 volumes of complete medium, cells were then centrifuged (250×g, 5 min), resuspended, and transferred in the amount needed into a new cultivation bottle with fresh medium. Population doubling time of LoVo cell line was 39 h under the cultivation conditions used.
as §2, §3, §4

For another data set, the system named is Hep G2. Put plainly: CellTiter-Glo luminescent cell viability assay (ATP quantification), Hep G2. It counts as cell-based. The following applies: Homo sapiens, HepG2; hepatocellular carcinoma cells, 72 h treatment, viable cells by ATP luminescence. How it is done:
as §1
as §5, with “Hep G2” for “LoVo”, “from liver” for “from”, “hepatocellular” for “colorectal”, “M4528)” for “D8437)”, “28” for “39”
as §2
as §3, with “In short: microtiter well plate was left 30 min to reach the room temperature after it has been removed from the incubator. Then, into each well, 100 μl of the prepared detection agent was added. Next, the well plate was shaken for 2 min to complete the full lysis.” left out, “Austria). […]” for “Austria).”

[1] abbreviates: HUVEC, normal human endothelial cells, numeric bound, values over 100 obtained by extrapolation of data measured at 0-100 μmol·l−1.
[2] abbreviates: Fibroblast, numeric bound, values over 100 obtained by extrapolation of data measured at 0-100 μmol·l−1.

By melting point is commonly meant the temperature of the solid-liquid transition. As to `CN(C)c1ccc(/C=C/c2cccc3[n+]2CCCc2ccc4c(c2-3)-c2cccc(/C=C/c3ccc(N(C)C)cc3)[n+]2CCC4)cc1` (racemic) (as salt: methanesulfonate) [(rac)-41, (rac)-4,15-bis((E)-4-(dimethylamino)styryl)-6,7,8,11,12,13-hexahydro-dipyrido[1,2-a:1′,2′-a′]benzo[2,1-c:3,4-c′]bisazepinediium trifluoromethanesulfonate], the melting point is 318 to 322 °C.
Usually IC50 stands for the concentration at which inhibition is half-maximal. Consider `COc1ccc2cc(/C=C/c3cc[n+]4c(c3)-c3c(c(C)c(C)c5c3-c3c6ccccc6cc[n+]3CC5)CC4)ccc2c1` (racemic) [(rac)-7, (rac)-(E)-13-(2-(6-methoxynaphthalene-2-yl)vinyl)-6,7-dimethyl-4,5,8,9-tetrahydroisoquinolino[1,2-a]pyrido[1,2-k][2,9]phenanthroline-3,10-diium trifluoromethanesulfonate], for which the IC50 with HeLa (Homo sapiens, HeLa) is 11 to 50 µM; in the data set on HL-60 (Homo sapiens, HL-60), 11 to 50 µM; in the data set on CCRF-CEM (Homo sapiens, CCRF-CEM), less than 10 µM; in the data set on HUVEC (setting [1]), more than 150 µM; in the data set with NHDF-Ad (setting [2]) it was more than 150 µM; with MOLT-4 (Homo sapiens, MOLT-4) it was 11 to 50 µM.
For `Cc1c(C)c2c(c3c1CC[n+]1ccc4ccccc4c1-3)-c1cccc(/C=C/c3cc4c5c(c3)CCCN5CCC4)[n+]1CC2` (racemic) [(rac)-12, (rac)-(E)-11-(2-(1,2,3,5,6,7-hexahydropyrido[3,2,1-ij]yl)vinyl)-6,7-dimethyl-4,5,8,9-tetrahydroisoquinolino[1,2-a]pyrido[1,2-k][2,9]phenanthroline-3,10-diium trifluoromethanesulfonate], the IC50 in the data set with HeLa (Homo sapiens, HeLa) lay in the range of 11 to 50 µM; in the data set with LoVo, 51 to 150 µM; with Hep G2, 11 to 50 µM; in the data set on CCRF-CEM (Homo sapiens, CCRF-CEM), 11 to 50 µM; with HUVEC (HUVEC, normal human endothelial cells from umbilical vein, viable cells by ATP luminescence, class symbols), 51 to 150 µM; in the data set on NHDF-Ad (Fibroblast, viable cells by ATP luminescence, class symbols), 51 to 150 µM. Besides, the IC50 with MOLT-4 (Homo sapiens, MOLT-4) lay within 51 to 150 µM.
On to `C(=C\c1cc[n+]2c(c1)-c1c(ccc3c1-c1c4ccccc4cc[n+]1CCC3)CCC2)/c1cc2c3c(c1)CCCN3CCC2` (racemic) [(rac)-25, (rac)-(E)-19-(2-(1,2,3,5,6,7-hexahydropyrido[3,2,1-ij]quinolin-9-yl)vinyl)-8,9,10,13,14,15-hexahydropyrido[1′″,2′″:1″,2″]azepino[4″,3″:5′,6′]benzo[1′,2′:3,4]azepino[2,1-a]isoquinoline-7,16-diium trifluoromethanesulfonate], for which the IC50 is 11 to 50 µM in the data set on HeLa (Homo sapiens, HeLa); 51 to 150 µM with LoVo; 11 to 50 µM with HL-60 (Homo sapiens, HL-60); 11 to 50 µM in the data set with CCRF-CEM (Homo sapiens, CCRF-CEM); more than 150 µM in the data set with HUVEC (setting [1]); more than 150 µM in the data set with NHDF-Ad (setting [2]). In the data set with MOLT-4 (Homo sapiens, MOLT-4), the IC50 lay within 11 to 50 µM.
Take `COc1ccc2cc(/C=C/c3cc[n+]4c(c3)-c3c(c(C)c(C)c5c3-c3c6ccccc6cc[n+]3CC5)CC4)ccc2c1` [(P)-7, (P)-(E)-13-(2-(6-methoxynaphthalene-2-yl)vinyl)-6,7-dimethyl-4,5,8,9-tetrahydroiso-quinolino[1,2-a]pyrido[1,2-k][2,9]phenanthroline-3,10-diium trifluoromethanesulfonate]: the IC50 in the data set with HeLa was 11 to 50 µM; in the data set with HL-60, 11 to 50 µM; with CCRF-CEM it was 11 to 50 µM; with HUVEC (normal human endothelial cells from umbilical vein, viable cells by ATP luminescence, class symbols), 51 to 150 µM; with NHDF-Ad (viable cells by ATP luminescence, class symbols) it was 51 to 150 µM; with MOLT-4 it was 11 to 50 µM.
